Results: patent publication US20030077740A1, “Presenilin/Crk binding polypeptides (PCBP) and methods of use thereof” (priority 2001, published 2003)

Assays:
[1] = molecular target: T1, Crk (Homo sapiens, UniProt P46108); assay: co-immunoprecipitation with Crk in 293T cells; assay type: binding; details: anti-PBP-TAG immunoprecipitation, Western blot with antibody against Crk
T1 construct: expressed in transfected cells; host or cells: 293T cells
Description: Since PBP has two consensus sequences for Crk binding, the interaction between PBP and Crk was also examined. The expression plasmid containing PBP cDNA attached to TAG and a plasmid containing Crk cDNA were co-transfected into 293T cells. Forty-eight hrs later, cells were lysed and proteins immunoprecipitated with anti-PBP-TAG and run on SDS acrylamide gels.
For immunoprecipitation of the large hydrophilic loop of PSs or Crk with PBP, cells were lysed in RIPA buffer (100 mM NaCl, 0.5% NP-40, 0.5% DOC, 0.1% SDS, 50 mM Tris, pH 7.5, 1 mM PMSF and 1 μg/ml aprotinin, 1 μg/l leupeptin) on ice for 30 min. For immunoprecipitation of full length PS1 with PBP, RIPA buffer with 1% NP40 but without DOC and SDS was used. Cell lysates were spun for 10 min at 10,000 g. The resulting supernatants were preadsorbed with anti-mouse IgG-agarose (Sigma) for 4 hours at 4° C. After centrifugation, antibody 12CA5 and anti-mouse IgG-agarose were added at 4° C. overnight. After incubation with anti-mouse IgG-agarose, immunoprecipitates were subjected to SDS-polyacrylamide gel electrophoresis and transferred to Immobilon (Millipore, Bedford, Mass.). Western blot analysis with anti-FLAG and 12CA5 monoclonal antibodies or an antibody against Crk was then performed. The bound antibodies were detected by the ECL-plus chemiluminescence system (Amersham, Arlington Heights, Ill.).

[2] = tested on: large hydrophilic loop of PS2; assay: co-immunoprecipitation in 293T cells, PS2 loop; assay type: binding; details: immunoprecipitation with anti-TAG, 48 hrs after transfection
Description: (§1) To confirm the yeast two-hybrid data, the interaction between PBP and PSs was assayed in mammalian cells by immunoprecipitation. Human kidney 293-T cells, and monkey kidney COS-7 cells were cultured in Dulbecco's modified Eagle's medium supplemented with 10% fetal calf serum at 37° C. in a 10% CO2 atmosphere. A nine-amino acid TAG epitope ([…]) (SEQ ID NO:6) was incorporated in-frame at the 3′ end of the PBP cDNA (PBP-TAG), and an eight amino acid FLAG epitope ([…]) (SEQ ID NO:7) was attached in frame at the 5′ end of the large hydrophilic loop of PS1 cDNA and at the 3′ end of full length PS1 cDNA as described previously (Kimura, H., Proc. Natl. Acad. Sci. (USA), 90:2165-2169 (1993)). The resulting fragments were inserted into the pCIS2 expression vector (Genentech, San Francisco, Calif.) for transient or constitutive expression. […]
(§2) For immunoprecipitation of the large hydrophilic loop of PSs or Crk with PBP, cells were lysed in RIPA buffer (100 mM NaCl, 0.5% NP-40, 0.5% DOC, 0.1% SDS, 50 mM Tris, pH 7.5, 1 mM PMSF and 1 μg/ml aprotinin, 1 μg/l leupeptin) on ice for 30 min. […] The bound antibodies were detected by the ECL-plus chemiluminescence system (Amersham, Arlington Heights, Ill.).

[3] = molecular target: T2, PS1 (Homo sapiens, UniProt P49768, L392V); assay: yeast two-hybrid interaction with PS1; assay type: binding; details: yeast two-hybrid system
T2 construct: the large hydrophilic loop region of PS1 (amino acids 1-81, 429-468, 263-407, respectively) were inserted into the pGBT9 vector; expressed in transfected cells; host or cells: yeast Y190

[4] = molecular target: T3, large hydrophilic loop of PS1 (Homo sapiens, UniProt P49768); assay: co-immunoprecipitation in 293T cells, PS1 loop; assay type: binding; details: immunoprecipitation with anti-TAG, 48 hrs after transfection, PS1-FLAG loop
T3 construct: and a large hydrophilic loop (amino acids 263-407); expressed in transfected cells; host or cells: 293T human kidney cells, pCIS2 expression vector
Description: as §1, §2

[5] = tested on: Ca2+-activated Cl- current; assay: Ca2+-activated Cl- current induced by serum in Xenopus oocytes; assay type: cell-based
Excerpt: Xenopus oocytes contain a plasma membrane CF channel which is activated by increases in intracellular Ca^2+, and intracellular Ca^2+ release is activated exclusively by inositol 1,4,5-triphosphate (IP3) Miledi & Parker, J. Physiol., 415:189-210 (1989)). Lysophosphatidic acid (LPA) increases the Ca^2+-activated Cl^− current in oocytes expressing PS1 relative to control oocytes (Leissring et al. (1999)). Since PBP can associate with PS1, the effect of the interaction of PBP with PS1 on the activation of Ca^2+-activated Cl^− current induced by serum (Miledi & Parker (1989)) was examined with Xenopus oocytes. […] Injection of cRNAs into Xenopus oocytes and the electrophysiological recordings were done as described previously (Kimura & Schubert, Proc. Natl. Acad. Sci. (USA), 90:7508-7512 (1993)).

[6] = tested on: B103 (APP695) cells; assay: APP secretion by transfected B103 (APP695) cells, Western blotting; assay type: cell-based, rat
[7] = tested on: B103 (APP695) cells; assay: intracellular APP level and pulse-chase turnover in B103 cells; assay type: cell-based, rat

T1 sequence (P46108 whole entry, species assumed): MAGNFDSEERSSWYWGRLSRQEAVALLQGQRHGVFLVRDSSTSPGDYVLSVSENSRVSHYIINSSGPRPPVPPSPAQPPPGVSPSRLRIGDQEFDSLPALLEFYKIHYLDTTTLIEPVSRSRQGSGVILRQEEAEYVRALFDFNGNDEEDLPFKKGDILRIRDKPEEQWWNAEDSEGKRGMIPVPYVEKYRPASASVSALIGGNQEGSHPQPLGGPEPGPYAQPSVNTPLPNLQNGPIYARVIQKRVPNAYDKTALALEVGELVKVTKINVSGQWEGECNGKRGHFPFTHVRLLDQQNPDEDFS

Question: How did the “co-precipitation with Crk” value [1] turn out when “PBP: novel 2027 amino acid protein, 233 kD, binds presenilins and Crk; expressed from cDNA in cells (KYGVVICSFRGSVPQGLVLEIGETVQILEKCEGWYRGVSTKKPNVKGLFPANYIHLK; listed as Mus musculus)” was run?
Answer: Its value is “co-precipitates”.

Question: And the “interaction with large hydrophilic loop of PS2” value [2]?
Answer: Its value is “interacts”.

Question: What about the “productive interaction with FAD mutant of PS1 (L392V)” value [3] of the same substance?
Answer: Its value is “productive interactions did not occur”.

Question: And the “interaction with PS1” value [4]?
Answer: Its value is “interacts”.

Question: And the “Ca2+-activated Cl- current” value ([5]; PBP alone expressed)?
Answer: The value was “slightly decreases”.

Question: What about the Cl- current ([5]; PS1-loop mutation L392V in the presence of PBP) of the same substance?
Answer: Its Cl- current is “does not suppress”.

Question: And the “Ca2+-activated Cl- current” value ([5]; co-expression with PS1, P<0.05 PS1 vs PS1+PBP)?
Answer: The value was “significantly suppresses”.

Question: And the “abundance of APP mRNAs” value ([6]; RT-PCR)?
Answer: Its value is “not altered”.

Question: And the “secretion of sAPPβ” value ([6]; antibodies 22C11, GID and 6E10, vs cells without PBP)?
Answer: Its value is “Less secretion”.

Question: And the sAPPα secretion ([6]; co-expression with WT PS1 or FAD PS1 (L392V), relative to PBP alone)?
Answer: Its sAPPα secretion is “further reduced”.

Question: What about the “secretion of β-laminin” value ([6]; specificity control) of the same substance?
Answer: Its value is “no effect”.

Question: What about the “secretion of sAPPα” value ([6]; stable clones vs empty vector, antibody 6E10) of the same substance?
Answer: The value was “dramatically decreased”.

Question: What about the APP secretion ([6]; transient transfection, uncloned population) of the same substance?
Answer: The APP secretion was “reduction”.

Question: What about the “intracellular APP protein level, pulse-chase” value ([7]; 10 min 35S-methionine label, chase 15-60 min) of the same substance?
Answer: The value was “rapidly decreased”.

Question: What about the “full length APP, intracellular level” value ([7]; APP695/PBP relative to APP695 cells, antibodies 6E10 and 22C11) of the same substance?
Answer: The value was “reduced”.
